Test results reported in patent US20150105252A1, “SUBSTITUTED PYRAZOLES AS HERBICIDES” (E I DU PONT DE NEMOURS AND COMPANY, priority 2013, published 2015).

Columns and labels:
[1] = tested on: velvetleaf; assay: Test C postemergence; type: in vivo, Abutilon theophrasti; settings: for Plant response rating (scale of 0 to 100 where 0 is no effect and 100 is complete control), Velvetleaf: Postemergence, 31 g ai/ha, visually evaluated after 13 to 15 days; for Velvetleaf plant response rating / Plant response rating, Velvetleaf: postemergence; for Velvetleaf plant response rating: scale 0 to 100
Outline: (§1)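 Seeds were sown in a loam soil–sand blend and sprayed preemergence with compounds formulated in a non-phytotoxic solvent mixture containing surfactant. Postemergence plants, grown in peat/vermiculite medium to 2–18 cm (1- to 4-leaf stage), received the same formulation. After 13 to 15 days in a greenhouse, injury was rated visually against controls (0 = no effect, 100 = complete control).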

[2] = tested on: velvetleaf; assay: Test C preemergence; type: in vivo, Abutilon theophrasti; settings: for Velvetleaf plant response rating / Plant response rating, Velvetleaf: preemergence; for Plant response rating, Velvetleaf: 125 g ai/ha, scale 0 to 100, 0 = no effect, 100 = complete control
Outline: as §1

[3] = tested on: lambsquarters; assay: Test C preemergence; type: in vivo, Chenopodium album; settings: for Lambsquarters plant response rating / Plant response rating, Lambsquarters: preemergence; for Plant response rating, Lambsquarters: 125 g ai/ha, scale 0 to 100, 0 = no effect, 100 = complete control
Outline: as §1

[4] = tested on: oat, wild; assay: Test C postemergence; type: in vivo, Avena fatua; settings: for Plant response rating (scale of 0 to 100 where 0 is no effect and 100 is complete control), Oat, Wild: Postemergence, 31 g ai/ha, visually evaluated after 13 to 15 days; for Oat, Wild plant response rating / Plant response rating, Oat, Wild: postemergence; for Oat, Wild plant response rating: 62 g ai/ha, scale 0 to 100
Outline: as §1

[5] = tested on: morningglory; assay: Test C postemergence; type: in vivo, Ipomoea coccinea; settings: for Plant response rating (scale of 0 to 100 where 0 is no effect and 100 is complete control), Morningglory: Postemergence, 31 g ai/ha, visually evaluated after 13 to 15 days; for Morningglory plant response rating / Plant response rating, Morningglory: postemergence; for Morningglory plant response rating: 62 g ai/ha, scale 0 to 100
Outline: as §1

[6] = tested on: velvetleaf; assay: Test A postemergence; type: in vivo, Abutilon theophrasti
Outline: (§2)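 Growth medium: loam soil blended with sand. Preemergence treatment used a directed soil spray right after planting; postemergence treatment targeted seedlings at one to two leaves (2–10 cm height). Response was judged by eye relative to untreated plants about 10 days later on a 0–100 control scale.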

[7] = tested on: sedge, umbrella; assay: Test B flood; type: in vivo, Cyperus difformis; settings: 250 g ai/ha, visual rating on 0 to 100 scale (0 no effect, 100 complete control), 13 to 15 days
Outline: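 Flooded-pot test: compound dosed into 3 cm of standing water above soil when plants had two leaves. Visual control ratings (0–100) versus untreated plants after 13–15 d.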

[8] = tested on: barnyardgrass; assay: Test C preemergence; type: in vivo, Echinochloa crus-galli; settings: for Barnyardgrass plant response rating / Plant response rating, Barnyardgrass: preemergence; for Plant response rating, Barnyardgrass: 125 g ai/ha, scale 0 to 100, 0 = no effect, 100 = complete control
Outline: as §1

[9] = tested on: morningglory; assay: Test C preemergence; type: in vivo, Ipomoea coccinea; settings: for Morningglory plant response rating / Plant response rating, Morningglory: preemergence; for Plant response rating, Morningglory: 125 g ai/ha, scale 0 to 100, 0 = no effect, 100 = complete control
Outline: as §1

[10] = tested on: morningglory; assay: Test A postemergence; type: in vivo, Ipomoea spp.
Outline: as §2

[11] = tested on: wheat; assay: Test A postemergence; type: in vivo, Triticum aestivum
Outline: as §2

[12] = tested on: johnsongrass; assay: Test C postemergence; type: in vivo, Sorghum halepense; settings: for Plant response rating (scale of 0 to 100 where 0 is no effect and 100 is complete control), Johnsongrass: Postemergence, 31 g ai/ha, visually evaluated after 13 to 15 days; for Johnsongrass plant response rating / Plant response rating, Johnsongrass: postemergence; for Johnsongrass plant response rating: 62 g ai/ha, scale 0 to 100
Outline: as §1

[13] = tested on: soybean; assay: Test C preemergence; type: in vivo, Glycine max; settings: for Soybean plant response rating / Plant response rating, Soybean: preemergence; for Plant response rating, Soybean: 125 g ai/ha, scale 0 to 100, 0 = no effect, 100 = complete control
Outline: as §1

[14] = tested on: chickweed; assay: Test C postemergence; type: in vivo, Stellaria media; settings: for Plant response rating (scale of 0 to 100 where 0 is no effect and 100 is complete control), Chickweed: Postemergence, 31 g ai/ha, visually evaluated after 13 to 15 days; for Chickweed plant response rating / Plant response rating, Chickweed: postemergence; for Chickweed plant response rating: 62 g ai/ha, scale 0 to 100
Outline: as §1

[15] = 250 g ai/ha, scale 0 to 100 (0 no effect, 100 complete control)
[16] = 125 g ai/ha, scale 0 to 100, 0 no effect, 100 complete control
[17] = 31 g ai/ha, visual rating, scale 0 to 100 (0 no effect, 100 complete control), 13 to 15 days
[18] = 62 g ai/ha, scale 0 to 100 (0 no effect, 100 complete control), 13 to 15 days
[19] = Postemergence, 500 g ai/ha, 0 to 100 scale (0 no effect, 100 complete control)
[20] = postemergence, 125 g ai/ha, about 10 days, visual rating on 0 to 100 scale (0 no effect, 100 complete control)
[21] = 250 g ai/ha, scale 0 to 100, 0 is no effect, 100 is complete control

Structure (SMILES): CCONC(=O)c1cc(CC)n(Cc2ccnc(OC(F)F)c2)n1 [Compound 131]
- Plant response rating (scale of 0 to 100 where 0 is no effect and 100 is complete control), Velvetleaf [1]: 5
- Velvetleaf plant response rating ([1]; 62 g ai/ha): 25
- Plant response rating, Velvetleaf [1, 15]: 55
- Plant response rating, Velvetleaf [1, 16]: 35
- Plant response rating (scale of 0 to 100), Velvetleaf ([2]; Preemergence, 250 g ai/ha): 100
- Velvetleaf plant response rating [2, 17]: 25
- Velvetleaf plant response rating [2, 18]: 80
- Plant response rating, Velvetleaf ([2]; 13 to 15 days): 100
- Plant response rating (scale of 0 to 100), Lambsquarters ([3]; Preemergence, 250 g ai/ha): 100
- Lambsquarters plant response rating [3, 17]: 98
- Lambsquarters plant response rating [3, 18]: 100
- Plant response rating, Lambsquarters ([3]; 13 to 15 days): 100
- Plant response rating (scale of 0 to 100 where 0 is no effect and 100 is complete control), Oat, Wild [4]: 5
- Oat, Wild plant response rating [4]: 10
- Plant response rating, Oat, Wild [4, 15]: 10
- Plant response rating, Oat, Wild [4, 16]: 15
- Plant response rating (scale of 0 to 100 where 0 is no effect and 100 is complete control), Morningglory [5]: 35
- Morningglory plant response rating [5]: 55
- Plant response rating, Morningglory [5, 15]: 70
- Plant response rating, Morningglory [5, 16]: 65
- Velvetleaf plant response rating [6, 19]: 100
- Velvetleaf plant response rating [6, 20]: 90
- Plant response rating, Sedge, Umbrella [7]: 90
- Plant response rating (scale of 0 to 100), Barnyardgrass ([8]; Preemergence, 250 g ai/ha): 100
- Barnyardgrass plant response rating ([8]; 31 g ai/ha, scale 0 to 100 (0 no effect, 100 complete control), 13 to 15 days): 55
- Barnyardgrass plant response rating [8, 18]: 95
- Plant response rating, Barnyardgrass ([8]; 13 to 15 days): 100
- Plant response rating (scale of 0 to 100), Morningglory ([9]; Preemergence, 250 g ai/ha): 100
- Morningglory plant response rating [9, 17]: 40
- Morningglory plant response rating [9, 18]: 100
- Plant response rating, Morningglory ([9]; 13 to 15 days): 100
- Morningglory plant response rating [10, 19]: 100
- Morningglory plant response rating [10, 20]: 90
- Wheat plant response rating [11, 19]: 90
- Wheat plant response rating [11, 20]: 80
- Plant response rating (scale of 0 to 100 where 0 is no effect and 100 is complete control), Johnsongrass [12]: 0
- Johnsongrass plant response rating [12]: 0
- Plant response rating, Johnsongrass [12, 15]: 10
- Plant response rating, Johnsongrass [12, 16]: 0
- Plant response rating (scale of 0 to 100), Soybean ([13]; Preemergence, 250 g ai/ha): 98
- Soybean plant response rating [13, 17]: 30
- Soybean plant response rating [13, 18]: 40
- Plant response rating, Soybean ([13]; 13 to 15 days): 85
- Plant response rating (scale of 0 to 100 where 0 is no effect and 100 is complete control), Chickweed [14]: 70
- Chickweed plant response rating [14]: 70
- Plant response rating, Chickweed [14, 15]: 80
- Plant response rating, Chickweed [14, 16]: 70

Structure (SMILES): O=C(NC1CC1)c1cc(CCCl)n(Cc2ccnc(C(F)(F)F)c2)n1 [Compound 144]
- Plant response rating (scale of 0 to 100 where 0 is no effect and 100 is complete control), Velvetleaf [1]: 15
- Plant response rating, Velvetleaf [1, 15]: 50
- Velvetleaf plant response rating [1]: 35
- Velvetleaf plant response rating [2, 17]: 15
- Velvetleaf plant response rating [2, 18]: 75
- Plant response rating, Velvetleaf ([2]; 13 to 15 days): 100
- Velvetleaf plant response rating [2, 21]: 100
- Lambsquarters plant response rating [3, 17]: 95
- Lambsquarters plant response rating [3, 18]: 98
- Plant response rating, Lambsquarters ([3]; 13 to 15 days): 98
- Lambsquarters plant response rating [3, 21]: 98
- Plant response rating (scale of 0 to 100 where 0 is no effect and 100 is complete control), Oat, Wild [4]: 15
- Oat, Wild plant response rating [4]: 10
- Plant response rating, Oat, Wild [4, 15]: 45
- Plant response rating, Oat, Wild [4, 16]: 20
- Plant response rating (scale of 0 to 100 where 0 is no effect and 100 is complete control), Morningglory [5]: 35
- Morningglory plant response rating [5]: 40
- Plant response rating, Morningglory [5, 15]: 98
- Plant response rating, Morningglory [5, 16]: 85
- Velvetleaf plant response rating [6, 19]: 90
- Velvetleaf plant response rating [6, 20]: 80
- Plant response rating, Sedge, Umbrella [7]: 95
- Barnyardgrass plant response rating [8, 17]: 75
- Barnyardgrass plant response rating [8, 18]: 98
- Plant response rating, Barnyardgrass ([8]; 13 to 15 days): 100
- Barnyardgrass plant response rating [8, 21]: 100
- Morningglory plant response rating [9, 17]: 60
- Morningglory plant response rating [9, 18]: 100
- Plant response rating, Morningglory ([9]; 13 to 15 days): 100
- Morningglory plant response rating [9, 21]: 100
- Morningglory plant response rating [10, 19]: 90
- Morningglory plant response rating [10, 20]: 80
- Wheat plant response rating [11, 19]: 90
- Wheat plant response rating [11, 20]: 50
- Plant response rating (scale of 0 to 100 where 0 is no effect and 100 is complete control), Johnsongrass [12]: 5
- Johnsongrass plant response rating [12]: 5
- Plant response rating, Johnsongrass [12, 15]: 15
- Plant response rating, Johnsongrass [12, 16]: 10
- Soybean plant response rating [13, 17]: 5
- Soybean plant response rating [13, 18]: 50
- Plant response rating, Soybean ([13]; 13 to 15 days): 80
- Soybean plant response rating [13, 21]: 98
- Plant response rating (scale of 0 to 100 where 0 is no effect and 100 is complete control), Chickweed [14]: 70
- Chickweed plant response rating [14]: 65
- Plant response rating, Chickweed [14, 15]: 90
- Plant response rating, Chickweed [14, 16]: 80

Structure (SMILES): CCOc1cc(C(=O)NOC(C)C)nn1Cc1ccnc(C(F)(F)F)c1 [Compound 153]
- Plant response rating, Velvetleaf [1, 15]: 65
- Velvetleaf plant response rating [1]: 30
- Velvetleaf plant response rating [2, 17]: 10
- Velvetleaf plant response rating [2, 18]: 60
- Plant response rating, Velvetleaf ([2]; 13 to 15 days): 90
- Velvetleaf plant response rating [2, 21]: 100
- Lambsquarters plant response rating [3, 17]: 85
- Lambsquarters plant response rating [3, 18]: 98
- Plant response rating, Lambsquarters ([3]; 13 to 15 days): 98
- Lambsquarters plant response rating [3, 21]: 100
- Plant response rating (scale of 0 to 100 where 0 is no effect and 100 is complete control), Oat, Wild [4]: 5
- Oat, Wild plant response rating [4]: 10
- Plant response rating, Oat, Wild [4, 15]: 20
- Plant response rating, Oat, Wild [4, 16]: 5
- Plant response rating (scale of 0 to 100 where 0 is no effect and 100 is complete control), Morningglory [5]: 65
- Morningglory plant response rating [5]: 85
- Plant response rating, Morningglory [5, 15]: 80
- Plant response rating, Morningglory [5, 16]: 70
- Velvetleaf plant response rating [6, 19]: 100
- Velvetleaf plant response rating [6, 20]: 70
- Plant response rating, Sedge, Umbrella [7]: 95
- Barnyardgrass plant response rating [8, 17]: 15
- Barnyardgrass plant response rating [8, 18]: 95
- Plant response rating, Barnyardgrass ([8]; 13 to 15 days): 100
- Barnyardgrass plant response rating [8, 21]: 100
- Morningglory plant response rating [9, 17]: 30
- Morningglory plant response rating [9, 18]: 80
- Plant response rating, Morningglory ([9]; 13 to 15 days): 100
- Morningglory plant response rating [9, 21]: 100
- Morningglory plant response rating [10, 19]: 100
- Morningglory plant response rating [10, 20]: 100
- Wheat plant response rating [11, 19]: 100
- Wheat plant response rating [11, 20]: 90
- Plant response rating (scale of 0 to 100 where 0 is no effect and 100 is complete control), Johnsongrass [12]: 0
- Johnsongrass plant response rating [12]: 5
- Plant response rating, Johnsongrass [12, 15]: 5
- Plant response rating, Johnsongrass [12, 16]: 0
- Soybean plant response rating [13, 17]: 5
- Soybean plant response rating [13, 18]: 10
- Plant response rating, Soybean ([13]; 13 to 15 days): 45
- Soybean plant response rating [13, 21]: 80
- Plant response rating (scale of 0 to 100 where 0 is no effect and 100 is complete control), Chickweed [14]: 50
- Chickweed plant response rating [14]: 70
- Plant response rating, Chickweed [14, 15]: 80
- Plant response rating, Chickweed [14, 16]: 70
